Key:
aardvark BRS3 (aBRS3) [1] = assay: Intracellular calcium assay (WT and mutants); type: cell-based, Orycteropus afer; settings: for Calcium fold: 10 nM peptide, HEK293, Fluo8, aBRS3; for Intracellular Ca2+, mutants (in words): aBRS3 R127Q, S205P, and H294R, all three
Description: (§1) Intracellular calcium was measured using the non-wash calcium assay Fluo8 kit (ab112129, Abcam) according to the manufacturer’s instructions. Briefly, HEK293 cells were seeded in 24-well plates and were transfected with GRPR, NMBR, BRS3, or the empty vector plasmid pcDNA3.1-V5-His (300 ng) and incubated overnight at 37°C with 5% CO2. The next day, the cells were replated into a 96-well assay plate (black plate and clear bottom). After 12 h, growth media were aspirated, and calcium dye was added. […] The basal fluorescence intensity was recorded 15 times at 1 Hz for […]. The results were normalized to the average basal fluorescence intensity in ratio, and the peak response was used for the result calculation. Calcium fold was calculated using no stimulation data as standard value.

chicken BRS3 (cBRS3) = assay: Radioligand binding (competition); design: species or system Gallus gallus; settings: transfected HEK293 cells, 1 h 21°C, pH 7.4, mean ± SE, at least three experiments
Description: HEK293 cells were seeded in a 10-cm tissue culture dish at a density of 10^6 cells per dish and grown overnight at 37°C in growth medium. The following morning, 5 μg of different species’ BRS3 plasmids were transfected. After 6 h, the medium was replaced with growth medium. Cells were maintained at 37°C in a 5% CO2 atmosphere and used 48 h later for binding assays. The positive control group included transfected GRPR and NMBR; the test group consisted of transfected BRS3 from different species. […] The cell concentration was adjusted to between 0.05 and 4 × 10^6 cells/ml for each receptor such that less than 20% of the total added radioactive ligand was bound during the incubation, and the results were compared to cells transfected with GRPR or NMBR adjusted in concentration to bind a similar amount of ligand. After the incubation, 100 μl aliquots were added to 1.5-ml microfuge tubes, which contained 100 μl of binding buffer to determine the total radioactivity. The bound tracer was separated from unbound tracer by pelleting the cells through the binding buffer by centrifugation at 10,000g in a Microfuge E (Beckman) for 3 min. The supernatant was aspirated, and the pelleted cells were rinsed twice with a washing buffer that contained 1% (w/v) BSA in PBS. The amount of radioactivity bound to the cells was measured in a Cobra II Gamma counter (Packard Instruments). Binding was expressed as the percentage of total radioactivity that was associated with the cell pellet. […] Each point was measured in duplicate, and each experiment was replicated at least four times. […] All the experiment data were calculated using 1 pM ligand-treated as 100% control.

spotted gar BRS3 (sBRS3) [2] = assay: Radioligand binding (competition); design: species or system Lepisosteus oculatus; settings: transfected HEK293 cells, 1 h 21°C, pH 7.4, mean ± SE, at least three experiments
Description: (§2) HEK293 cells were seeded in a 10-cm tissue culture dish at a density of 10^6 cells per dish and grown overnight at 37°C in growth medium. The following morning, 5 μg of different species’ BRS3 plasmids were transfected. After 6 h, the medium was replaced with growth medium. Cells were maintained at 37°C in a 5% CO2 atmosphere and used 48 h later for binding assays. The positive control group included transfected GRPR and NMBR; the test group consisted of transfected BRS3 from different species. Then, [^125I]-Tyr^42-GRP and [^125I]-Tyr-NMB were used as the ligands to assess affinity to the various receptors. […] The cell concentration was adjusted to between 0.05 and 4 × 10^6 cells/ml for each receptor such that less than 20% of the total added radioactive ligand was bound during the incubation, and the results were compared to cells transfected with GRPR or NMBR adjusted in concentration to bind a similar amount of ligand. After the incubation, 100 μl aliquots were added to 1.5-ml microfuge tubes, which contained 100 μl of binding buffer to determine the total radioactivity. The bound tracer was separated from unbound tracer by pelleting the cells through the binding buffer by centrifugation at 10,000g in a Microfuge E (Beckman) for 3 min. The supernatant was aspirated, and the pelleted cells were rinsed twice with a washing buffer that contained 1% (w/v) BSA in PBS. The amount of radioactivity bound to the cells was measured in a Cobra II Gamma counter (Packard Instruments). Binding was expressed as the percentage of total radioactivity that was associated with the cell pellet. All binding values represented saturable binding; nonsaturable binding was <15% of the total binding in all experiments. Each point was measured in duplicate, and each experiment was replicated at least four times. […] All the experiment data were calculated using 1 pM ligand-treated as 100% control.

spotted gar BRS3 (sBRS3) [3] = assay: Intracellular calcium assay (WT and mutants); type: cell-based, Lepisosteus oculatus; settings: for Calcium fold: 10 nM peptide, HEK293, Fluo8, sBRS3; for Intracellular Ca2+, mutants (in words): sBRS3 Q127R, P205S, and R294H
Description: as §1

human BRS3 (hBRS3) = assay: ERK1/2 phosphorylation (WT and mutants); type: cell-based
Description: (§3) For ERK1/2 phosphorylation, HEK293 cells were seeded in 24-well plates and transfected with GRPR, NMBR, BRS3, mutants of different species’ BRS3, or an empty vector plasmid, pcDNA3.1-V5-His plasmid (300 ng). […] Each sample with an equal amount of protein was mixed with 6×SDS sample buffer, boiled for 5 min, and separated on 10% SDS-polyacrylamide gel electrophoresis (PAGE) before transferring the proteins onto a PVDF membrane. The membranes were then blocked at room temperature for 1 h with 5% milk powder in Tris-buffered saline-Tween (TBST), followed by subsequent incubation at 4°C overnight in TBST containing the different primary antibodies (1:1,000 dilution). After washing three times (10 min each time) with TBST, the membranes were incubated for 1 h in TBST containing the secondary antibodies (1:2,000 dilution), followed by washing three times (10 min each time) with TBST, prior to detection by chemiluminescence.

mouse BRS3 (mBRS3) = assay: ERK1/2 phosphorylation (WT and mutants); type: cell-based; settings: mBRS3 R127Q, S205P, and H294R, all three
Description: as §3

aardvark BRS3 (aBRS3) [4] = assay: ERK1/2 phosphorylation (WT and mutants); type: cell-based, Orycteropus afer; settings: aBRS3 R127Q, S205P, and H294R, all three
Description: as §3

turtle BRS3 (tBRS3) [5] = assay: Radioligand binding (competition); design: species or system Chrysemys picta; settings: transfected HEK293 cells, 1 h 21°C, pH 7.4, mean ± SE, at least three experiments
Description: as §2

[6] = biological target: placental mammalian BRS3 (hBRS3, mBRS3, and aBRS3); assay: Radioligand binding, placental mammals pooled; design: species or system human, mouse, aardvark; settings: for Ki: BRS3s in placental mammals; for Direct binding (in words): hBRS3, mBRS3, aBRS3, transfected HEK293 cells
Description: as §2

turtle BRS3 (tBRS3) [7] = assay: ERK1/2 phosphorylation (WT and mutants); type: cell-based, Chrysemys picta
Description: as §3

Substance | Intracellular Ca2+, mutants (in words) (aardvark BRS3 (aBRS3) [1]) | IC50 (chicken BRS3 (cBRS3); 50 pM [125I]-Tyr42-GRP) [nM] | IC50 (chicken BRS3 (cBRS3); 50 pM [125I]-Tyr-NMB) [nM] | IC50 (spotted gar BRS3 (sBRS3) [2]; 50 pM [125I]-Tyr42-GRP) [nM] | IC50 (spotted gar BRS3 (sBRS3) [2]; 50 pM [125I]-Tyr-NMB) [nM] | Intracellular Ca2+, mutants (in words) (spotted gar BRS3 (sBRS3) [3]) | ERK phosphorylation, mutant (in words) (human BRS3 (hBRS3); hBRS3 H294R) | ERK phosphorylation, mutant (in words) (human BRS3 (hBRS3); hBRS3 R127Q) | ERK phosphorylation, mutant (in words) (human BRS3 (hBRS3); hBRS3 S205P) | ERK phosphorylation, mutants (in words) (mouse BRS3 (mBRS3)) | ERK phosphorylation, mutants (in words) (aardvark BRS3 (aBRS3) [4]) | IC50 (turtle BRS3 (tBRS3) [5]; 50 pM [125I]-Tyr42-GRP) [nM] | IC50 (turtle BRS3 (tBRS3) [5]; 50 pM [125I]-Tyr-NMB) [nM] | Ki [6] [nM] | Direct binding (in words) [6] | ERK phosphorylation, mutant (in words) (turtle BRS3 (tBRS3) [7]; tBRS3 P205S) | ERK phosphorylation, mutant (in words) (turtle BRS3 (tBRS3) [7]; tBRS3 Q127R) | ERK phosphorylation, mutant (in words) (turtle BRS3 (tBRS3) [7]; tBRS3 R294H) | further results
GSHWAVGHLM-NH2 [GRP, gastrin-releasing peptide] | significant increase in cellular Ca^2+ ions levels | 0.15 | 0.18 | 0.17 | 0.54 | significant effects | could be detected | could be detected | the effect is not obvious | lead to ERK phosphorylation signal | lead to ERK phosphorylation signal | 0.14 | 0.28 | > 1000 | no binding was detected | the effect is not obvious | almost could not be detected | almost could not be detected | Calcium fold (aardvark BRS3 (aBRS3) [1]; replicate 1): 1.0918 fold; Calcium fold (aardvark BRS3 (aBRS3) [1]; replicate 2): 1.1902 fold; Calcium fold (aardvark BRS3 (aBRS3) [1]; replicate 3): 1.2372 fold; Calcium fold (spotted gar BRS3 (sBRS3) [3]; replicate 1): 4.5257 fold; Calcium fold (spotted gar BRS3 (sBRS3) [3]; replicate 2): 4.9378 fold; Calcium fold (spotted gar BRS3 (sBRS3) [3]; replicate 3): 5.3682 fold
neuromedin B [NMB] | significant increase in cellular Ca^2+ ions levels | 1.35 | 2.26 | 1.74 | 2.65 | significant effects | could be detected | could be detected | the effect is not obvious | lead to ERK phosphorylation signal | lead to ERK phosphorylation signal | 1.14 | 2.82 | > 1000 | no binding | the effect is not obvious | almost could not be detected | almost could not be detected | 

Reference: PMC6422423, “Constitutively active BRS3 is a genuinely orphan GPCR in placental mammals” (PLoS Biology, 2019)
